Measurements from patent US20190256930A1, “BIOMARKERS FOR DETERMINING RESPONSIVENESS TO LSD1 INHIBITORS” (ORYZON GENOMICS, S.A., priority 2016, published 2019).
Values joined by “and” are separate entries in the source; they are usually repeats but may differ in a detail not shown here. Equal entries are not always repeated.

What was measured:
Assay type in all cases: in vivo, human
[1] = system: blast cells; test: Clinical response: morphological blast differentiation and blast counts in smears of bone marrow aspirate and/or peripheral blood, Phase I extension cohort
Excerpt: As part of a Phase I clinical study assessing the human pharmacokinetics and safety of ORY-1001 in acute leukemia patients, an extension cohort of 14 patients (mean age 57; range 30-78, gender 8M/6F) was opened in order to provide a preliminary assessment of efficacy. A summary of the patients recruited in this extension cohort can be found in Table 1.
Preliminary clinical efficacy endpoints included (a) morphological blast differentiation and (b) decrease in blast %. In addition, gene expression determinations of selected markers were performed.
Each patient received ORY-1001 for oral intake as a solution at a dose of 140 microgram/m2/day (as free base) q.d., during 5 consecutive days with 2 days of rest, for 4 cycles (total of 28 days), or until disease progression or unacceptable toxicity was observed.
For the evaluation of the morphological blast differentiation and blast counts, smears of bone marrow aspirate and/or peripheral blood were prepared, stained by the May-Grünwald-Giemsa method, and microscopically examined in accordance with ICSH guidelines (ICSH guidelines for the standardization of bone marrow specimens and reports, Lee S H, Erber W N, Porwit A, Tomonaga M, Peterson L C; International Council for Standardization In Hematology, International journal of laboratory hematology 2008 October; 30(5):349-64).

[2] = system: VCAN; test: Gene expression by qRT-PCR in peripheral blood of acute leukemia patients; conditions: individual patients, within 98 and 168 h after first dose, relative to HPRT1 and pre-dose, negative = up-regulation
Experimental: (§1) Plasma for pharmacokinetic determinations was separated by centrifugation. The remaining cell volume was resuspended in 2 mL PBS and an aliquot of […] was stabilized in a PAXgene® Blood RNA tube as described by the vendor and kept frozen for subsequent RNA extraction and qRT-PCR.
(§2) RNA extraction was performed using PAXgene® Blood RNA Kit (PreAnalytix) as described by the vendor. RNA quality was assessed using an Agilent 2100 Bioanalyzer™ and quantity was measured using a NanoDrop™ spectrophotometer.
(§3) An amount of 0.5 micrograms of total RNA was reverse transcribed to obtain 1st strand cDNA (iScript® Reverse Transcription Supermix for RTqPCR; Bio-Rad).
(§4) Gene expression was analyzed by qRT-PCR, a variant of the PCR (Polymerase Chain Reaction) method that permits the simultaneous exponential amplification and detection of specific cDNA fragments. Taqman gene expression assays were used, which employ the principle of doubly labeled hydrolysis probes marked with a fluorescent moiety at their 5′ end and with a quencher moiety at the 3′ end, which prevents the generation of fluorescence according to the Förster energy transfer principle.
(§5) In the exponential phase of the amplification reaction, the intensity of the fluorescence is directly proportional to the quantity of PCR product formed. The LightCycler® 480 Software determines the “crossing point” (Cp), i.e. the point where the reaction's fluorescence reaches the maximum of the second derivative of the amplification curve, which corresponds to the point where the acceleration of the fluorescence signal is at its maximum. The Cp values reflect the target mRNA concentration in the original RNA sample. Differences in Cp values (ΔCp) for a gene X of interest in a given sample relative to a control sample reflect changes in mRNA concentration of the gene X in a given amount of total RNA in the respective sample, and are calculated as:
(§6) ΔΔCp, gene X=[Cp(sample, gene X)−Cp(sample, reference gene)]−[Cp(control, gene X)−Cp(control, reference gene)]
(§7) The fold change in mRNA concentration is calculated as 2^−ΔΔCp, a negative ΔΔCp representing an increase in the expression level, and vice versa.
(§8) An amount of 0.5 micrograms of the 1st strand product was used to perform qRT-PCR reactions in triplicate (Taqman® gene expression assay, Life technologies, see Table 3) in a Roche LightCycler®480. In order to analyze the changes in the expression levels of ANXA2, CAMSAP2, CD86, CRISP9, CTSG, GPR65, ITGAM, LY96, LYZ, S100A12, VCAN, and VIM, ΔΔCp values for a given patient and time point were calculated as described above, relative to the endogenous reference gene HPRT1 and to a control sample obtained from the same patient at pre-dose (i.e. prior to administration of the first dose of ORY-1001 to said patient).
(§9) For the analysis of the gene expression data, the time point (or time interval) showing the maximum response is typically selected. This time point/interval may change depending on the specific dose, administration scheme, etc. In the present study, all the gene expression and correlation analysis was performed by using the data obtained after administration of day 5, i.e. within the time interval between 98 and 168 h after the first dose. The maximum response observed within this time interval is referred to in the tables herein as “Maximum response (ΔΔCp) on day 5”.

[3] = system: CD86; test: as above; conditions: individual patients, within 98 and 168 h after first dose, relative to HPRT1 and pre-dose, negative = up-regulation
Experimental: as §1, §2, §3, §4, §5, §6, §7, §8, §9

[4] = system: CAMSAP2; test: as above; conditions: individual patients, within 98 and 168 h after first dose, relative to HPRT1 and pre-dose, negative = up-regulation
Experimental: as §1, §2, §3, §4, §5, §6, §7, §8, §9

[5] = system: GPR65; test: as above; conditions: individual patients, within 98 and 168 h after first dose, relative to HPRT1 and pre-dose, negative = up-regulation
Experimental: as §1, §2, §3, §4, §5, §6, §7, §8, §9

[6] = system: CTSG; test: as above; conditions: individual patients, within 98 and 168 h after first dose, relative to HPRT1 and pre-dose, negative = up-regulation
Experimental: as §1, §2, §3, §4, §5, §6, §7, §8, §9

[7] = system: LYZ; test: as above; conditions: individual patients, within 98 and 168 h after first dose, relative to HPRT1 and pre-dose, negative = up-regulation
Experimental: as §1, §2, §3, §4, §5, §6, §7, §8, §9

[8] = system: Ly96; test: as above; conditions: individual patients, within 98 and 168 h after first dose, relative to HPRT1 and pre-dose, negative = up-regulation
Experimental: as §1, §2, §3, §4, §5, §6, §7, §8, §9

[9] = system: VIM; test: as above; conditions: individual patients, within 98 and 168 h after first dose, relative to HPRT1 and pre-dose, negative = up-regulation
Experimental: as §1, §2, §3, §4, §5, §6, §7, §8, §9

[10] = system: ITGAM; test: as above; conditions: individual patients, within 98 and 168 h after first dose, relative to HPRT1 and pre-dose, negative = up-regulation
Experimental: as §1, §2, §3, §4, §5, §6, §7, §8, §9

[11] = system: ANXA2; test: as above; conditions: individual patients, within 98 and 168 h after first dose, relative to HPRT1 and pre-dose, negative = up-regulation
Experimental: as §1, §2, §3, §4, §5, §6, §7, §8, §9

[12] = system: S100A12; test: as above; conditions: individual patients, within 98 and 168 h after first dose, relative to HPRT1 and pre-dose, negative = up-regulation
Experimental: as §1, §2, §3, §4, §5, §6, §7, §8, §9

[13] = system: S100A12, VCAN, ITGAM, LY96, ANXA2, CD86, GPR65, CRISP9, LYZ, and VIM; test: Correlation of marker gene expression (qRT-PCR, peripheral blood) with response to ORY-1001; conditions: day 5
Experimental: as §8, §9
Possible correlations between expression changes in marker genes described in table 5 and response to ORY-1001 treatment (see Table 2) were investigated.
The expression levels of Ly96 and ITGAM did additionally correlate with the variation of blast cells in bone marrow (see FIGS. 1A and 1B), particularly in M4/M5 subtypes, further supporting the utility of these marker genes in monitoring response to ORY-1001 treatment in easily accessible samples such as peripheral blood.

[14] = system: S100A12 and VCAN; test: S100A12 and VCAN gene expression in patients developing a differentiation syndrome; conditions: patients developing a differentiation syndrome (Patients 01 and 09); within 98 and 168 h after the first dose
Experimental: as §8
For the analysis of the gene expression data, the time point (or time interval) showing the maximum response is typically selected. This time point/interval may change depending on the specific dose, administration scheme, etc. In the present study, all the gene expression and correlation analysis was performed by using the data obtained after administration of day 5, i.e. within the time interval between 98 and 168 h after the first dose. The maximum response observed within this time interval is referred to in the tables herein as “Maximum response (ΔΔCp) on day 5”. […]

[15] = system: GPR65; test: Gene expression by qRT-PCR in peripheral blood of acute leukemia patients; conditions: individual patients
[16] = system: S100A12; test: as above; conditions: individual patients
[17] = peripheral blood and/or bone marrow, extension cohort of 14 patients, all four FAB subtypes
[18] = patients showing both blast morphological differentiation and a decrease in blast cells, particularly M4/M5
[19] = patients showing no morphological differentiation and/or no effect or increase in blast cells
[20] = within 602 and 768 h after the first administration
[21] = within first 24 h after the first administration

## N[C@H]1CC[C@H](N[C@@H]2C[C@H]2c2ccccc2)CC1 [ORY-1001, (trans)-N1-((1R,2S)-2-phenylcyclopropyl)cyclohexane-1,4-diamine]
[1]; individual patients, peripheral blood, variation of blast % between pre- and post-treatment (day 7 to 29), 140 microgram/m2/day oral
  % Blast variation (peripheral blood): ↓ −32% (peripheral blood) and ↓ −55% (peripheral blood) ^e and =(peripheral blood) and ↓ −55% and =
[1]; [17]
  patients with decrease in blast cells: 6/14
  patients with morphologic blast differentiation: 5/14
[2]
  Maximum response (ΔΔCp) on day 5, VCAN: 2.2 ΔΔCp and 2.0 ΔΔCp and −0.8 ΔΔCp and −9.1 ΔΔCp and 1.8 ΔΔCp and 3.4 ΔΔCp and −2.2 ΔΔCp and −2.1 ΔΔCp and −4.2 ΔΔCp and −1.2 ΔΔCp and 1.6 ΔΔCp and 1.2 ΔΔCp
[3]
  Maximum response (ΔΔCp) on day 5, CD86: −1.8 ΔΔCp and 2.2 ΔΔCp and 2.5 ΔΔCp and −2.9 ΔΔCp and −3.0 ΔΔCp and −2.0 ΔΔCp and −3.3 ΔΔCp and 0.8 ΔΔCp and −4.4 ΔΔCp and −2.5 ΔΔCp and −2.8 ΔΔCp and 1.3 ΔΔCp
[4]
  Maximum response (ΔΔCp) on day 5, CAMSAP2: −2.8 ΔΔCp and −1.9 ΔΔCp and 1.2 ΔΔCp and 3.1 ΔΔCp and 1.6 ΔΔCp and −3.7 ΔΔCp and −4.3 ΔΔCp and −2.5 ΔΔCp and −2.3 ΔΔCp and −3.0 ΔΔCp and −2.9 ΔΔCp and −1.4 ΔΔCp
[5]
  Maximum response (ΔΔCp) on day 5, GPR65: −1.8 ΔΔCp and −1.4 ΔΔCp and −1.3 ΔΔCp and −3.8 ΔΔCp and 3.1 ΔΔCp and −0.9 ΔΔCp and 2.3 ΔΔCp and −4.8 ΔΔCp and −3.0 ΔΔCp and −2.3 ΔΔCp and 4.4 ΔΔCp and −1.5 ΔΔCp
[6]
  Maximum response (ΔΔCp) on day 5, CTSG: 2.3 ΔΔCp and 3.9 ΔΔCp and 3.3 ΔΔCp and 1.8 ΔΔCp and 2.2 ΔΔCp and −1.8 ΔΔCp and 7.6 ΔΔCp and −3.6 ΔΔCp and −1.7 ΔΔCp and −2.5 ΔΔCp and −0.7 ΔΔCp
[7]
  Maximum response (ΔΔCp) on day 5, LYZ: 2.9 ΔΔCp and 3.2 ΔΔCp and −1.2 ΔΔCp and 1.7 ΔΔCp and −2.3 ΔΔCp and 2.5 ΔΔCp and −2.2 ΔΔCp and −3.9 ΔΔCp and −0.6 ΔΔCp and 2.4 ΔΔCp and 1.2 ΔΔCp
[8]
  Maximum response (ΔΔCp) on day 5, Ly96: −1.6 ΔΔCp and −2.9 ΔΔCp and 2.3 ΔΔCp and −3.3 ΔΔCp and 3.0 ΔΔCp and −4.3 ΔΔCp and −3.1 ΔΔCp and −4.8 ΔΔCp and 2.4 ΔΔCp and −3.2 ΔΔCp and −5.1 ΔΔCp and −4.1 ΔΔCp and −1.5 ΔΔCp
[9]
  Maximum response (ΔΔCp) on day 5, VIM: −1.2 ΔΔCp and −1.3 ΔΔCp and −0.5 ΔΔCp and 2.2 ΔΔCp and 1.7 ΔΔCp and −2.4 ΔΔCp and −3.4 ΔΔCp and −2.2 ΔΔCp and −0.4 ΔΔCp and 1.3 ΔΔCp and −0.6 ΔΔCp
[10]
  Maximum response (ΔΔCp) on day 5, ITGAM: 1.7 ΔΔCp and 1.6 ΔΔCp and 2.1 ΔΔCp and −2.3 ΔΔCp and 3.0 ΔΔCp and 3.1 ΔΔCp and −1.3 ΔΔCp and 3.2 ΔΔCp and −3.0 ΔΔCp and −3.7 ΔΔCp and −2.8 ΔΔCp and 1.8 ΔΔCp
[11]
  Maximum response (ΔΔCp) on day 5, ANXA2: 2.0 ΔΔCp and −1.1 ΔΔCp and −2.6 ΔΔCp and 1.9 ΔΔCp and −1.9 ΔΔCp and −2.0 ΔΔCp and −3.8 ΔΔCp and −1.6 ΔΔCp and −1.4 ΔΔCp and 3.2 ΔΔCp
[12]
  Maximum response (ΔΔCp) on day 5, S100A12: −4.5 ΔΔCp and −1.7 ΔΔCp and 1.7 ΔΔCp and 1.3 ΔΔCp and 2.7 ΔΔCp and −5.0 ΔΔCp and 3.0 ΔΔCp and 0.8 ΔΔCp and 2.4 ΔΔCp and 2.0 ΔΔCp and 2.1 ΔΔCp and 3.9 ΔΔCp and −2.1 ΔΔCp
[13]; [18]
  up-regulation of the gene markers (fold): 1.3 to 550 fold
  up-regulation of the gene markers (ΔΔCp): −0.4 to −9.1 ΔΔCp
[13]; [19]
  down-regulation of some of the genes (fold change): 0.6 to 0.05 fold
  down-regulation of some of the genes (ΔΔCp): 0.8 to 4.4 ΔΔCp
[14]
  S100A12 and VCAN exacerbated up-regulation (fold): 18 to 550 fold
  S100A12 and VCAN exacerbated up-regulation (ΔΔCp): −4.2 to −9.1 ΔΔCp
[15]; [20]
  GPR65 Day 26 maximum response: −3.2 ΔΔCp and −4.8 ΔΔCp
[15]; [21]
  GPR65 Day 1 maximum response: 2.2 ΔΔCp and −1.1 ΔΔCp
[16]; [20]
  S100A12 Day 26 maximum response: −7.1 ΔΔCp and −2.8 ΔΔCp
[16]; [21]
  S100A12 Day 1 maximum response: −2.1 ΔΔCp and −0.4 ΔΔCp
